A short description of data set [1]: Cytotoxicity in Vero cells. As to conditions: African green monkey, cytotoxic concentration. Type of data set: cell-based. The method, then:
(§1) The methanol extracts of the plant parts and their fractions separated as less polar, medium polar and polar fractions using column chromatography or solvent separation/partitioning, were assessed for toxicity and subsequently for inhibition of HSV-2 in Vero cells by plaque reduction assay. These extracts and fractions were also tested for anti-HIV-1 activity and inhibition of other sexually transmitted pathogens like C. albicans, N gonorrhoea and H. ducreyi.
(§2) According to Table 3, the extracts of plant species selected from the group consisting of Polygonum glabrum, Rhus mysorensis, Terminalia paniculata, Cuscuta reflexa, Terminalia crenulata, Cassytha filiformis, Scutia myrtina, were studied for cytotoxicity in Vero cells.

The subject of another data set is Vero cells. Kind of data set: Cytotoxicity in Vero cells. To be noted: cytotoxic concentration. Type of data set: cell-based. How it is done: as §1, §2
In a further data set the test system is HSV-2. Kind of data set: Anti-HSV-2 plaque reduction assay in Vero cells. Format: cell-based, Herpes Simplex Virus Type-2. To be noted: HSV-2 plaque assay. How it is done:
13 wild plant species belonging to eight families Convolvulaceae (3 species), Polygonaceae (2 species), Anacardiaceae (1 species), Combretaceae (2 species), Lauraceae (1 species), Asteraceae (2 species), Zingiberaceae (1 species) and Rhamnaceae (1 species) were selected.
as §1
In general terms: Plaques are areas of infected cells; plaque reduction assays count them against a control.

The test system of data set [2] is Haemophilus duceryi ATCC 33921. Kind of data set: Anti-Ducreyi activity by agar disc diffusion. Format: cell-based, Haemophilus ducreyi. To be noted: H. duceryi ATCC 33921 (Tetracycline Sensitive); 10 μg disc, positive control. The method, then:
A tetracycline sensitive strain of H. duceryi ([…]) was cultured on Chanchroid agar (GC agar supplemented with 2% haemoglobin, 5% FBS and 1% isovitalex and incubated at 33° C. for 72 hrs. in a candle jar with 45% moisture. The strain was identified by colony characteristics, Gram stain, growth characteristics (requirement for X and V factors) and Tween 80 hydrolysis as described earlier, and stored at −70° C. in brain heart infusion broth containing 20% glycerol.
The inoculum of each strain was prepared following the CLSI guidelines for bacteria and yeasts. The 0.5 McFarland standard inoculums (approx. 1.5×10^8 CFU/ml) of N. gonorrhoeae, H. duceryi and C. albicans were prepared from freshly grown cultures, in sterile 0.85% normal saline and mixed thoroughly. […]
The primary screening of plant extracts for activity against the three microorganisms included in the study was carried out by Kirby Baur agar disc diffusion method as described earlier. […] The discs (extract/fraction and controls) were placed on the plates previously inoculated with the respective bacterial/fungal culture, incubated as mentioned above and the zone of inhibition was recorded. […] The minimum inhibitory and minimum cidal concentrations of the extracts showing inhibition were determined using following methods.
For orientation: In agar diffusion tests the substance spreads into inoculated agar from a disc or well.

Setting [3] is: Human alphaherpesvirus 2, Vero cells.

Values after ≈ are worked out from the molar mass of the structure shown.

The values that follow come from patent US20150320820A1, “MICROBIOCIDES FROM PLANT EXTRACTS FOR PROTECTION AGAINST HSV 2 INFECTION” (Council of Scientific and Industrial Research, priority 2012, published 2015).

Usually CC50 stands for the concentration that lowers cell viability or growth by half. A high value points to lower toxicity to the cells. As usually defined, the IC50 is the concentration at which inhibition is half-maximal. Read a low IC50 as greater potency. A word on the IC80: it is the concentration needed for an effect of 80%. A low value points to greater potency. Regarding `Nc1nc2c(ncn2COCCO)c(=O)[nH]1` [Acyclovir], in data set [1], the CC50 came out at 806 µg/mL (≈ 3580 µM). The molecule also had a CC80 in the data set on Vero cells of 378 µg/mL (≈ 1680 µM). In the data set with HSV-2 (setting [3]), this molecule had an IC50 of 5.6 µg/mL (≈ 24.9 µM) and an IC80 of 2.81 µg/mL (≈ 12.5 µM). In the data set with HSV-2 (Therapeutic Index), this molecule came in with a TI of 151.

In general, zone of inhibition refers to the size of the clear area around the sample on an inoculated plate. Lower therefore signals a weaker effect on the plate. For the molecule penicillin, the zone of inhibition in data set [2] worked out at 36 mm.
